Assay results as given in US11464770B2, “Anticancer pharmaceutical composition” (NATIONAL CANCER CENTER, priority 2016, dated 2022).
Where two headings read alike, the source gives them in different places.

Tested on: brain cancer cell lines
Assay: Cell based assay, cell viability (CellTiter-Glo), brain cancer cell lines
Conditions: Homo sapiens
[1] = U138-MG, U-138 MG cell line, read-out: IC50, Brain cancer cell line U-138 MG
[2] = T98G cell line, read-out: IC50, Brain cancer cell line T98G
[3] = U-251 MG cell line, read-out: IC50, Brain cancer cell line U-251 MG

| Compound | IC50 [1] [nM] | IC50 [2] [nM] | IC50 [3] [nM] |
| --- | --- | --- | --- |
| CC(=O)c1c([S+]([O-])Cc2ccc(F)cc2F)[nH]c2c(Br)ccc(Cl)c2c1=O (stereo not drawn) [Compound 29, 3-acetyl-8-bromo-5-chloro-2-((2,4-difluorobenzyl)sulfinyl)quinolin-4(1H)-one] | 1380 | > 10000 | 1140 |
| CC(=O)c1c([S+]([O-])Cc2ccc(F)c(Cl)c2)[nH]c2c(Br)ccc(Cl)c2c1=O (stereo not drawn) [Compound 31, 3-acetyl-8-bromo-5-chloro-2-((3-chloro-4-fluorobenzyl)sulfinyl)quinolin-4(1H)-one] | 1790 | > 10000 | 1090 |
| CC(=O)c1c([S+]([O-])Cc2ccc([N+](=O)[O-])cc2)[nH]c2c(Br)ccc(Cl)c2c1=O (stereo not drawn) [Compound 33, 3-acetyl-8-bromo-5-chloro-2-((4-nitrobenzyl)sulfinyl)quinolin-4(1H)-one] | > 2000 | > 10000 | 1110 |
| CC(=O)c1c(S(=O)(=O)Cc2ccccc2)[nH]c2c(Br)ccc(Cl)c2c1=O [Compound 34, 3-acetyl-2-(benzylsulfonyl)-8-bromo-5-chloroquinolin-4(1H)-one] | > 2000 | > 10000 | > 2000 |
| CC(=O)c1c([S+]([O-])Cc2cc(Cl)ccc2Cl)[nH]c2c(Br)ccc(Cl)c2c1=O (stereo not drawn) [Compound 44, 3-acetyl-8-bromo-5-chloro-2-((2,5-dichlorobenzyl)sulfinyl)quinolin-4(1H)-one] | > 2000 | > 10000 | 1050 |
| CC(=O)c1c([S+]([O-])Cc2cc(F)cc(F)c2)[nH]c2c(Br)ccc(Cl)c2c1=O (stereo not drawn) [Compound 46, 3-acetyl-8-bromo-5-chloro-2-((3,5-difluorobenzyl)sulfinyl)quinolin-4(1H)-one] | > 2000 | > 10000 | > 2000 |
| CC(=O)c1c([S+]([O-])Cc2cccc(F)c2)[nH]c2c(Br)ccc(Cl)c2c1=O (stereo not drawn) [Compound 50, 3-acetyl-8-bromo-5-chloro-2-((3-fluorobenzyl)sulfinyl)quinolin-4(1H)-one] | > 2000 | > 10000 | 1280 |
| CC(=O)c1c([S+]([O-])Cc2cc(C)on2)[nH]c2c(Br)ccc(Cl)c2c1=O (stereo not drawn) [Compound 51, 3-acetyl-8-bromo-5-chloro-2-(((5-methylisoxazol-3-yl)methyl)sulfinyl)quinolin-4(1H)-one] | 1920 | > 10000 | > 2000 |
| COc1cccc(C[S+]([O-])c2[nH]c3c(Br)ccc(Cl)c3c(=O)c2C(C)=O)c1 (stereo not drawn) [Compound 55, 3-acetyl-8-bromo-5-chloro-2-((3-methoxybenzyl)sulfinyl)quinolin-4(1H)-one] | > 2000 | > 10000 | > 2000 |
| CC(=O)c1c([S+]([O-])Cc2ccc(SC(F)(F)F)cc2)[nH]c2c(Br)ccc(Cl)c2c1=O (stereo not drawn) [Compound 56, 3-acetyl-8-bromo-5-chloro-2-((4-((trifluoromethyl)thio)benzyl)sulfinyl)quinolin-4(1H)-one] | 1340 | > 10000 | 1170 |
| CC(=O)c1c([S+]([O-])Cc2ccc([N+](=O)[O-])cc2)[nH]c2c(Cl)ccc(Cl)c2c1=O (stereo not drawn) [Compound 57, 3-acetyl-5,8-dichloro-2-((4-nitrobenzyl)sulfinyl)quinolin-4(1H)-one] | > 10000 | > 10000 | > 2000 |
| COc1cc(C[S+]([O-])c2[nH]c3c(Br)ccc(Cl)c3c(=O)c2C(C)=O)cc(OC)c1 (stereo not drawn) [Compound 59, 3-acetyl-8-bromo-5-chloro-2-((3,5-dimethoxybenzyl)sulfinyl)quinolin-4(1H)-one] | 1500 | > 10000 | 1280 |
| CC(=O)c1c([S+]([O-])Cc2ccc(C(C)(C)C)cc2)[nH]c2c(Br)ccc(Cl)c2c1=O (stereo not drawn) [Compound 60, 3-acetyl-8-bromo-2-((4-(tert-butyl)benzyl)sulfinyl)-5-chloroquinolin-4(1H)-one] | > 2000 | > 10000 | > 2000 |
| CC(=O)c1c([S+]([O-])Cc2ccc([S+]([O-])C(F)(F)F)cc2)[nH]c2c(Br)ccc(Cl)c2c1=O (stereo not drawn) [Compound 64, 3-acetyl-8-bromo-5-chloro-2-((4-((trifluoromethyl)sulfinyl)benzyl)sulfinyl)quinolin-4(1H)-one] | 1430 | > 10000 | > 2000 |
| CC(=O)c1c([S+]([O-])Cc2ccc(C(F)(F)F)cc2)[nH]c2c(Br)ccc(Cl)c2c1=O (stereo not drawn) [Compound 70, 3-acetyl-8-bromo-5-chloro-2-((4-(trifluoromethyl)benzyl)sulfinyl)quinolin-4(1H)-one] | 1520 | > 10000 | 1140 |
| CC(=O)c1c([S+]([O-])Cc2ccc(OC(F)(F)F)cc2)[nH]c2c(Br)ccc(Cl)c2c1=O (stereo not drawn) [Compound 71, 3-acetyl-8-bromo-5-chloro-2-((4-(trifluoromethoxy)benzyl)sulfinyl)quinolin-4(1H)-one] | > 2000 | > 10000 | > 2000 |
| CC(=O)c1c([S+]([O-])Cc2ccc(C(F)(F)F)o2)[nH]c2c(Br)ccc(Cl)c2c1=O (stereo not drawn) [Compound 72, 3-acetyl-8-bromo-5-chloro-2-(((5-(trifluoromethyl)furan-2-yl)methyl)sulfinyl)quinolin-4(1H)-one] | 1180 | > 10000 | 1070 |
| CC(=O)c1c([S+]([O-])Cc2ccc(C#N)cc2)[nH]c2c(Br)ccc(Cl)c2c1=O (stereo not drawn) [Compound 73, 4-(((3-acetyl-8-bromo-5-chloro-4-oxo-1,4-dihydroquinolin-2-yl)sulfinyl)methyl)benzonitrile] | > 2000 | > 10000 | > 2000 |
| CC(=O)c1c([S+]([O-])Cc2c(F)cccc2Cl)[nH]c2c(Br)ccc(Cl)c2c1=O (stereo not drawn) [Compound 74, 3-acetyl-8-bromo-5-chloro-2-((2-chloro-6-fluorobenzyl)sulfinyl)quinolin-4(1H)-one] | 1440 | > 10000 | > 2000 |
| COc1cc(S(F)(F)(F)(F)F)ccc1C[S+]([O-])c1[nH]c2c(Br)ccc(Cl)c2c(=O)c1C(C)=O (stereo not drawn) [Compound 75, 3-acetyl-8-bromo-5-chloro-2-((2-methoxy-4-(pentafluoro--sulfanyl)benzyl)sulfinyl)quinolin-4(1H)-one] | 1370 | > 10000 | 1090 |
| CC(=O)c1c([S+]([O-])Cc2cc(F)cc(S(F)(F)(F)(F)F)c2)[nH]c2c(Br)ccc(Cl)c2c1=O (stereo not drawn) [Compound 76, 3-acetyl-8-bromo-5-chloro-2-((3-fluoro-5-(pentafluoro--sulfanyl)benzyl)sulfinyl)quinolin-4(1H)-one] | > 2000 | > 10000 | > 2000 |
| CC(=O)c1c([S+]([O-])Cc2c(F)c(F)c(F)c(F)c2F)[nH]c2c(Br)ccc(Cl)c2c1=O (stereo not drawn) [Compound 78, 3-acetyl-8-bromo-5-chloro-2-(((perfluorophenyl)methyl)sulfinyl)quinolin-4(1H)-one] | > 2000 | > 10000 | > 2000 |
| CC(=O)c1c([S+]([O-])Cc2ccc(I)cc2)[nH]c2c(Cl)ccc(Cl)c2c1=O (stereo not drawn) [Compound 83, 3-acetyl-5,8-dichloro-2-((4-iodobenzyl)sulfinyl)quinolin-4(1H)-one] | > 2000 | > 2000 | 1350 |
| CC(=O)c1c([S+]([O-])Cc2cccnc2)[nH]c2c(Br)ccc(Cl)c2c1=O (stereo not drawn) [Compound 84, 3-acetyl-8-bromo-5-chloro-2-((pyridin-3-ylmethyl)sulfinyl)quinolin-4(1H)-one] | > 2000 | > 10000 | > 2000 |
| Cc1cc(C[S+]([O-])c2[nH]c3c(Cl)ccc(Cl)c3c(=O)c2C(=O)C(C)C)no1 (stereo not drawn) [Compound 86, 5,8-dichloro-3-isobutyryl-2-(((5-methylisoxazol-3-yl)methyl)sulfinyl)quinolin-4(1H)-one] | 1290 | > 10000 | 740 |
| COC(=O)c1ccc(C[S+]([O-])c2[nH]c3c(Cl)ccc(Cl)c3c(=O)c2C(C)=O)o1 (stereo not drawn) [Compound 89, methyl 5-(((3-acetyl-5,8-dichloro-4-oxo-1,4-dihydroquinolin-2-yl)sulfinyl)methyl)furan-2-carboxylate] | > 2000 | > 10000 | > 2000 |
| Cc1cc(C[S+]([O-])c2[nH]c3c(Br)ccc(Cl)c3c(=O)c2C(=O)C(C)C)no1 (stereo not drawn) [Compound 95, 8-bromo-5-chloro-3-isobutyryl-2-(((5-methylisoxazol-3-yl)methyl)sulfinyl)quinolin-4(1H)-one] | 1010 | > 10000 | 610 |
